In patent publication US20220280541A1, “METHOD FOR IDENTIFYING CARBOHYDRATE DRUG-SENSITIVE PATIENT IN PATIENTS HAVING ALZHEIMER'S DISEASE” (SHANGHAI GREEN VALLEY PHARMACEUTICAL CO., LTD., priority 2019, published 2022):
“Also recorded” adds a separate entry of the source.

How the values were obtained:
Th1 cells [1] = test: Intraperitoneal injection of phenylalanine and isoleucine, blood Th1 cells; format: in vivo, mouse; settings: WT (C57) mice, intraperitoneal injection 50 mg/kg for 4 days
Protocol: Animals. Tg mice and co-housed WT mice (corresponding WT mice generated by mating Tg mice and C57 mice) were housed in the same cage after birth. WT mice (C57) were housed in separate cages to avoid cross-transfer of microbiota. All mice were kept in a 23° C. room with a 12-hour (h) light-dark cycle. Mice were randomly assigned to different groups before treatment. For time course analysis of Tg mice, male and female Tg mice were sacrificed at 2, 3, 5, 7 and 9 months of age. The mouse brain was collected and stained for immune cell analysis and cytokine analysis. Before the mice were sacrificed, feces were collected for gut microbiota analysis. For OM1 treatment, at the age of 6.5 months, based on 450 mg b.i.d. (twice a day) in the phase III trial, Tg mice were treated with 100 mg/kg OM1 by oral administration once a day for one month. Behavioral tests were performed to monitor cognitive activity after the last treatment. […] All mouse movements that occur in PhenoTyper (HomeCage) are recorded by a computerized tracking system, which calculates the time and number of entrances required to reach 80% of the performance standard (Noldus, Ethovision). […]
Flow cytometry sample preparation and analysis. […] All samples were counted and adjusted to a density of 2-3×10^6/100 μL, labeled with a Live/Dead kit for 30 min, and then centrifuged at 500×g for 3 min at 4° C. […]

naive CD4^+ T cells = test: In vitro differentiation and proliferation induced by phenylalanine and isoleucine; format: cell-based, mouse; settings: amino acid added directly to naive CD4^+ T cell culture
Protocol: In Vitro differentiation and proliferation induced by phenylalanine and isoleucine. Naive CD4^+ T cells were separated from the splenocytes of 8-month-old C57BL/6 female mice using the Naive CD4^+ T cell Isolation Kit (Stem Cell, #19765), and the cells were stained with CellTrace (Thermo Fisher, #C34557). A total of 1×10^5 cells/well in 0.2 mL of RPMI-1640 medium were plated in 96-well plates, and the culture medium was supplemented with cytokines or blocking antibodies. Th0: 10 ng/mL mIL-2; Th1:10 ng/mL mIL-2, 5000 ng/mL 11B11. Phenylalanine (final concentration, 2 mmol/L), isoleucine (final concentration, 2 mmol/L) and OM1 (final concentration, 100 μg/mL) were added into the indicated wells, respectively. After incubation at 37° C. in 5% CO2 for 5 days, cells were acquired on a BD Fortessa cytometer, and data were analyzed using FlowJo software.

Th1 cells [2] = test: Flow cytometry of brain Th1 cells in 5XFAD (Tg) mice; format: in vivo, mouse; settings: 6-month-old 5XFAD mice, 50 mg/kg intraperitoneal daily for one month, versus vehicle
Protocol: Animals. Tg mice and co-housed WT mice (corresponding WT mice generated by mating Tg mice and C57 mice) were housed in the same cage after birth. […] All mice were kept in a 23° C. room with a 12-hour (h) light-dark cycle. Mice were randomly assigned to different groups before treatment. For time course analysis of Tg mice, male and female Tg mice were sacrificed at 2, 3, 5, 7 and 9 months of age. The mouse brain was collected and stained for immune cell analysis and cytokine analysis. […] For OM1 treatment, at the age of 6.5 months, based on 450 mg b.i.d. (twice a day) in the phase III trial, Tg mice were treated with 100 mg/kg OM1 by oral administration once a day for one month. […] The brains and feces of the mice were then used for different analyses.
Flow cytometry sample preparation and analysis. Mice were anesthetized, blood samples were collected into EDTA-containing tubes, and red blood cells were removed using 1×red blood lysis buffer. Before tissue collection, the brains were perfused with ice-cold PBS to avoid sampling the circulating blood immune cells, and the brains were removed, chopped into pieces and dissected according to the introduction of the Adult Brain Dissociation Kit (Miltenyi, Cat No. 130-107-677) using the gentleMACS dissociator (Miltenyi Biotec). The brain homogenate was filtered through a 70-μm cell strainer and centrifuged at 300×g for 5 min at 4° C. The cell pellet was resuspended in cold PBS buffer and centrifuged again at 300×g for 5 min at 4° C. All samples were counted and adjusted to a density of 2-3×10^6/100 μL, labeled with a Live/Dead kit for 30 min, and then centrifuged at 500×g for 3 min at 4° C. The cells were resuspended in 100 μL PBS buffer, blocked with anti-CD16/32 (Biolegend, Cat No. 101320) for 10 min, and incubated with the antibody according to the manufacturers' protocols at 4° C. for 30 min. […]

LAT1 = LAT1 (Homo sapiens, UniProt Q01650); settings: cited from earlier work
Chain of LAT1 (Q01650 whole entry, species assumed): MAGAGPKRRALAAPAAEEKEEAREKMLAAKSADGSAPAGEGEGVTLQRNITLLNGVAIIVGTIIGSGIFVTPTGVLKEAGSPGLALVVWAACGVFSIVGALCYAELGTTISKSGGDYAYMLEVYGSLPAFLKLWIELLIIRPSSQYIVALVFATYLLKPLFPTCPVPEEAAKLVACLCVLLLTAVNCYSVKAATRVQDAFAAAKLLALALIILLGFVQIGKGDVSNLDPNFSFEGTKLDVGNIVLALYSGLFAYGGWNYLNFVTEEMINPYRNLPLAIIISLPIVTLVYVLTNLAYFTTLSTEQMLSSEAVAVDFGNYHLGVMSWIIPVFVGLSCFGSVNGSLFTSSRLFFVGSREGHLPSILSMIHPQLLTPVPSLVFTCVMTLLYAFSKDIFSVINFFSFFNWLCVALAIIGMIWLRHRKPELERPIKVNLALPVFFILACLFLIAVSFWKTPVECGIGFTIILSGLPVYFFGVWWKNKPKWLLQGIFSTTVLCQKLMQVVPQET
Chain of LAT1 (P08195 102-630 partner, species assumed): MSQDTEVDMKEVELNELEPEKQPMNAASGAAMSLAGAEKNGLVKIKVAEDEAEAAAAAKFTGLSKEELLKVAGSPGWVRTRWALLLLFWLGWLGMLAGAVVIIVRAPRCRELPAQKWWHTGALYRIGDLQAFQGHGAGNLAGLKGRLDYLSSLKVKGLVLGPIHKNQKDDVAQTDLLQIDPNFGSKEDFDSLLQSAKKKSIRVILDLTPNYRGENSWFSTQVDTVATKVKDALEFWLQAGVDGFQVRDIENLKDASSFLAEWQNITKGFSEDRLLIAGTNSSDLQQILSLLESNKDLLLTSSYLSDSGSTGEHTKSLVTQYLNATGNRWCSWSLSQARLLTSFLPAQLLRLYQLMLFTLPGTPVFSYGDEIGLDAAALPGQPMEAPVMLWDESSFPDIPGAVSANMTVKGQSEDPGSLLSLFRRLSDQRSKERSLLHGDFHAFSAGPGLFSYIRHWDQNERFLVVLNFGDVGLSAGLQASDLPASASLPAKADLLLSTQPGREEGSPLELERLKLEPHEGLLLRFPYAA

SLC7A5 = target: T1, SLC7A5 (Mus musculus, UniProt Q9Z127); test: Uptake of ^13C-labelled phenylalanine by naive CD4^+ T cells; format: cell-based; settings: 0.5 h incubation
T1 construct: endogenous in cells; host or cells: naive CD4+ T cells from splenocytes of C57BL/6 mice (Th0 and IL-12-induced Th1)
T1 sequence (Q9Z127 whole entry): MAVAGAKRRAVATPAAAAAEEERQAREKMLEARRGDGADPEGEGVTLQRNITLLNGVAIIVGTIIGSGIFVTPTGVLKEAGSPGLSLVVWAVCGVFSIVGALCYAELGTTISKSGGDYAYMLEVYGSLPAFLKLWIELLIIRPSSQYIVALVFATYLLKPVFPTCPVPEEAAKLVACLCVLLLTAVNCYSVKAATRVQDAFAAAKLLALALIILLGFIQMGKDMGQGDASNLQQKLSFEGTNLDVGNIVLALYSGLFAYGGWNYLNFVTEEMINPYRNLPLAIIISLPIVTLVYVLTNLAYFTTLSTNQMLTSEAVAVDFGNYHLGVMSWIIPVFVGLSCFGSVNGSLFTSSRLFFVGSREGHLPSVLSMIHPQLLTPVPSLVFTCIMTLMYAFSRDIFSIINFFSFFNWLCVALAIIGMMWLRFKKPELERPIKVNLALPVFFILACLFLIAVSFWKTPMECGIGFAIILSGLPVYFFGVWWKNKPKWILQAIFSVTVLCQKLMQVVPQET
T1 sequence (P10852 whole entry partner): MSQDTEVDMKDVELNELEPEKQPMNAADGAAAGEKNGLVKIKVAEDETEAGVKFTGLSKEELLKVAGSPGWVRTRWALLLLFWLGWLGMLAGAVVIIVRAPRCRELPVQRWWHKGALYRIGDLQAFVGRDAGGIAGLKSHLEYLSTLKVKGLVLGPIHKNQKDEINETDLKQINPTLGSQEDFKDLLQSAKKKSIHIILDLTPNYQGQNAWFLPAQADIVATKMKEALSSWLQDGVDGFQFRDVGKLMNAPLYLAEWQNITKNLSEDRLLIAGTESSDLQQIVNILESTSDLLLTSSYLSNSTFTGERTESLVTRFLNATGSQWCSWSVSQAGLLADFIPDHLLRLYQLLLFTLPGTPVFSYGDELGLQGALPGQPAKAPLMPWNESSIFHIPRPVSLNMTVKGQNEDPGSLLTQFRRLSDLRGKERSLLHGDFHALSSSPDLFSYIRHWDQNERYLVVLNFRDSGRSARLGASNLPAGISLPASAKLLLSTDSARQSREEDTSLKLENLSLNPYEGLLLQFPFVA
Protocol: Uptake of phenylalanine. Naive CD4^+ T cells were separated from the splenocytes of 8-month-old C57BL/6 female mice using the Naive CD4^+ T cell Isolation Kit (Stem Cell, Cat No. 19765) and were induced to Th1 differentiation by 20 ng/mL IL-12. After 3 days, a total of 5×10^5 cells/well Th1 cells and Th0 cells in 0.5 mL of RPMI-1640 medium were plated into 48-well plates. ^13C-labelled phenylalanine and 5 mM amino transporter inhibitor BCH were added into indicated wells. After 0.5 h, cells were collected and washed twice with ice-cold D-PBS. 50 μL deionized water was added and cells were lysed through freezing and thawing twice at −80° C. The cell lysate was centrifuged at 12000×g for 10 min and ^13C-labelled phenylalanine in the supernatant was analyzed by Mass spectrometry.

Structure (SMILES)	Th1 cell count in the blood (Th1 cells [1])	Th0 cell differentiation into Th1 cells (naive CD4^+ T cells)	Th1 cell proliferation (naive CD4^+ T cells)	proportion of pro-inflammatory Th1 cells in the mouse brain (Th1 cells [2]; 50 mg/kg)	proportion of pro-inflammatory Th1 cells in the mouse brain (Th1 cells [2]; listed as JPH 203, 50 mg/kg)	LAT1 inhibition, selectivity (LAT1)	uptake of ^13C-labelled phenylalanine by CD4^+ T cells (SLC7A5)
N[C@@H](Cc1ccccc1)C(=O)O [phenylalanine]	increased significantly	increased	increased	–	–	–	–
Nc1cc(COc2c(Cl)cc(C[C@H](N)C(=O)O)cc2Cl)c2oc(-c3ccccc3)nc2c1 [JPH203]	–	–	–	effectively inhibits; also recorded: significantly downregulated	significantly reduces	selectively inhibits LAT1	blocked
CC[C@H](C)[C@H](N)C(=O)O [isoleucine]	increased significantly	increased	increased	–	–	–	–
